Legend:
trophic factors = assay: Trophic factors in peripheral organs (kidneys, lungs, spleens) of stroke animals; assay type: in vivo, Sprague-Dawley rats; details: intravenous, lungs, and spleens
GDNF, NGF, and BDNF = assay: Blood levels of trophic factors by ELISA at day 3 after stroke; assay type: in vivo, Sprague-Dawley rats; details: intravenous
Method: Finally, the blood levels of GDNF, NGF, and BDNF were measured to further determine the source of trophic factors. Additional stroke animals (n=6 per group) were subjected to the same surgical/drug regimen as above and were euthanized at day 3 after stroke.

## OC[C@@H](O)[C@@H](O)[C@H](O)[C@H](O)CO [mannitol]
Trophic factors
  elevation of trophic factors in peripheral organs, above controls: 8%
GDNF, NGF, and BDNF
  trophic factors in circulating blood: no detectable levels
